Data: patent US20130012709A1, “NOVEL INHIBITORS OF STEAROYL-CoA-DESATURASE-1 AND THEIR USES” (CENTRE NATIONAL DE LA RECHERCHE SCIENTIFIQUE, priority 2009, published 2013)
Read-outs that look alike come from different tables or passages of the source.

Columns and labels:
C4-2 cells [1] = assay: Proliferation by BrDU incorporation; conditions: for % Inhibition of proliferation at 25 μM (BrDU) on C4-2: 48 h of treatment
Protocol: (§2) LNCaP and C4-2 cells grown on coverslips were incubated for 4 hours with BrdU (100 μM final) at 24 hours and 48 hours following SCD-1 knock-down. Cells were then fixed and permeabilized with cold methanol for 10 min at −20° C. After 3 washes with PBS, DNA was denaturated with 4NHCL for 10 min at RT, and cells were incubated with blocking buffer (PBS-1% BSA). BrDU was then detected with anti-BrDU monoclonal antibody 1:50 (Dako, Carpinteria, Calif.) for 1 hour at 37° C. After 3 washes with PBS, cells were incubated with an FITC-conjugated anti-mouse secondary antibody 1:150 (Jackson Immunoresearch) for 30 min at 37° C., and slides were mounted in mowiol.

LNCaP cells [2] = assay: Proliferation by BrDU incorporation; assay type: cell-based, human; conditions: for % Inhibition of proliferation at 25 μM (BrDU) on LNCaP: 48 h of treatment
Protocol: as §2

C4-2 cells [3] = test system: C4-2 cells
Protocol: (§3) After 48 h, medium was removed and 250 μl of a 5 mg/ml MTT (Sigma, St Louis, Mo., USA) solution in PBS was added to each well. After 4 h incubation at 37° C., the MTT solution was removed, 200 μl of DMSO (Sigma) was added and cells were incubated for 5 min. Two hundred microliters of each samples was distributed in 96-well plates for an optical density reading at 540 nm.

C4-2 cells [4] = assay: MTT assay (cell viability); conditions: 48 h
Protocol: as §3

C4-2 cells [5] = assay: Flow cytometry analysis of cell cycle; assay type: cell-based, human; conditions: 25 μM, 48 h; untreated cells 22
Protocol: (§1) Cells were then rinsed in PBS, pelleted at 400 g for 5 min and maintained on ice for 20 min before resuspension in a […] propidium iodide (Sigma) solution. Cells were kept overnight at 4° C. and the percentages of cells in G1, S and G2-M phases of the cell cycle were measured with a Coulter Epics XL™ flow cytometer (Becton Dickinson) using 488-nm laser excitation. For apoptosis experiment, MEFs were treated with the tested compound at 25 μM for 24 h, then rinced in PBS, pelleted at 400 g for 5 min and stained with annexinV-FITC (Roche Diagnostics, Meylan, France) for 15 min at 4° C. The percentage of annexin positive cells was immediately analysed using 488-nm laser excitation.

LNCaP cells [6] = assay: Flow cytometry analysis of cell cycle; assay type: cell-based, human; conditions: 25 μM, 48 h; untreated cells 20
Protocol: as §1

SCD1 mRNA and protein = assay: SCD-1 knock-down by siRNA, mRNA and protein expression; assay type: cell-based, human
Protocol: For small interfering (si) RNA experiments, transfection of LNCaP or C4-2 cells was carried out with pre-designed ON-TARGET plus siRNA oligonucleotides control or targeting the human SCD-1 sequence GCACAUCAACUUCACCACA (Dharmacon, Lafayette, Co, USA).
Nucleofaction of cells with 2.5 μg siRNA were performed on 2×10^6 cells using Amaxa nucleofactor R kit (Lonza, Cologne, Germany). Twenty-four hours and 48 hours after transfection, cells were processed for cell proliferation by BrdU staining and harvested for RNA and protein analysis.
RNA was extracted with the use of TRI-Reagent (Euromedex, Mundolsheim, France) according to the manufacturers' recommendations. Reverse transcription of total RNA was performed at 37° C. using the M-MLV reverse transcriptase (Invitrogen) and random hexanucleotide primers (Promega, Madison, Wis.), followed by a 15 min inactivation at 70° C. Quantitative PCR was conducted using the primers specific for human SCD1 and SYBR Green Light Cycler Master Mix (Eurofins MWG Operon, Roissy CDG). […] Values are expressed as the relative mRNA level of specific gene expression as obtained using the formula 2^−(ΔCt).

Row | Molecule | % Inhibition of proliferation at 25 μM (BrDU) on C4-2 (C4-2 cells [1]) [%] | % Inhibition of proliferation at 25 μM (BrDU) on LNCaP (LNCaP cells [2]) [%] | Viable C4-2 cells at 25 μM (% of control) (C4-2 cells [3]) | Viable C4-2 cells at 25 μM (% of control) (C4-2 cells [4]) | % C4-2 cells in phase S at 25 μM (C4-2 cells [5]) [%] | % LNCaP cells in phase S at 25 μM (LNCaP cells [6]) [%] | other results
1 | COc1ccc(Br)c(C(=O)N2CCN(S(=O)(=O)c3ccc(F)cc3F)CC2)c1 [Example 12, 1N-[(2-bromo-5-methoxybenzoyl)]-4N-[(2, 4 difluorophenyl)sulfonyl]piperazine] | 55.2 ± 0.5 | 60.6 | 70 % of control |  |  |  | 
2 | COc1ccc(Br)c(C(=O)N2CCN(S(=O)(=O)c3cccc(C(F)(F)F)c3)CC2)c1 [Example 7, 1N-[(2-bromo-5-methoxybenzoyl)]-4N-[(3-trifluoromethylphenyl)sulfonyl]piperazine] | 31.6 ± 7.61 | 16.7 | 44 % of control |  |  |  | 
3 | COc1ccc(Br)c(C(=O)N2CCN(S(=O)(=O)c3ccc(F)cc3)CC2)c1 [Example 2, 1-[(2-bromo-5-methoxybenzoyl)]-4-[(4-fluorophenyl)sulfonyl]piperazine] |  |  |  | 49 % of control | 11.8 | 5 | inhibition at 25 µM (C4-2 cells [1]; Homo sapiens, C4-2, 48 h, read-out: % Inhibition of proliferation at 25 μM (BrDU) on C4-2): 37.2 ± 8.8%; melting point: 202 °C
4 | COc1ccc(Br)c(C(=O)N2CCN(S(=O)(=O)c3cccc(F)c3)CC2)c1 [Example 15, 1N-[(2-bromo-5-methoxybenzoyl)]-4N-[(3-fluorophenyl)sulfonyl]piperazine] | 35.7 ± 6 | 0 | 83 % of control |  |  |  | 
5 | siRNA: pre-designed ON-TARGET plus siRNA oligonucleotides targeting the human SCD-1 sequence GCACAUCAACUUCACCACA (Dharmacon) (chemistry not given here) [reference compound] |  |  |  |  |  |  | proliferation after SCD-1 knock-down (C4-2 cells [1]; C4-2, siRNA): marked decrease; proliferation after SCD-1 knock-down (LNCaP cells [2]; LNCaP, siRNA): marked decrease; SCD1 mRNA and protein expressions (SCD1 mRNA and protein): blocked
6 | COc1ccc(Br)c(C(=O)N2CCN(S(=O)(=O)c3ccc([N+](=O)[O-])cc3)CC2)c1 [Example 6, 1N-[(2-bromo-5-methoxybenzoyl)]-4N-[(4-nitrophenyl)sulfonyl]piperazine] | 0 |  |  | 42 % of control | 19.8 | 15 | 
7 | COc1ccc(Br)c(C(=O)N2CCN(S(=O)(=O)c3ccccc3)CC2)c1 [Example 1, 1N-[(2-bromo-5-methoxybenzoyl)]-4N-[(phenyl)sulfonyl]piperazine] | 22.7 ± 11.2 |  |  | 45 % of control | 20.1 | 18 | 
8 | COc1ccc(Br)c(C(=O)N2CCN(S(=O)(=O)c3ccccc3F)CC2)c1 [Example 13, 1N-[(2-bromo-5-methoxybenzoyl)]-4N-[(2-fluorophenyl)sulfonyl]piperazine] | 55.6 ± 3.1 | 27.1 | 56 % of control |  |  |  | 
9 | COc1ccc(Br)c(C(=O)N2CCN(S(=O)(=O)c3ccccc3C(F)(F)F)CC2)c1 [Example 8, 1N-[(2-bromo-5-methoxybenzoyl)]-4N-[(2-trifluoromethylphenyl)sulfonyl]piperazine] | 84.4 ± 8.5 | 40.1 | 73 % of control |  |  |  | 
10 | COc1ccc(Br)c(C(=O)N2CCN(S(=O)(=O)c3ccc(OC(F)(F)F)cc3)CC2)c1 [Example 11] | 63 ± 4.1 | 45.5 | 74 % of control |  |  |  | 
